Reference: US20240247035A1, “STAPLED ANTIMICROBIAL PEPTIDES (STAMPS) AND USES THEREOF” (Lytica Therapeutics, Inc., priority 2021, published 2024)
Values after ≈ are worked out from the molar mass of the structure shown. Bridge positions count the residues as written; N and C are the ends. Square brackets hold non-standard residues; d marks the D form. Peptide text beside a SMILES is read from it. S5 = C=CCCC[C@](C)(N)C(=O)O

Assays:
[1] = 90 minute cytotoxicity assay (LDH release), renal toxicity; assay type: cell-based; conditions: human
Protocol: (§1) Cell culture: RPTEC were maintained in MEM media supplemented with growth factors. HEPG2 cell line was maintained in Eagle's Minimum Essential Medium (EMEM) supplemented with fetal bovine serum to a final concentration of 10%.
90 minute cytotoxicity assay: Cells were plated in a 96-well format, and after overnight incubation, media was replaced with fresh media. Serial dilutions of StAMPs from a 5 mg/mL water stock, or vehicle, were added to the cells in a final volume of 100 μl. After incubating at 37° C. for 90 min, 50 μl of cell culture media was transferred to a clear 96-well plate, incubated with 50 μl of lactate dehydrogenase (LDH) assay reagent for 10 min, and absorbance measured at 490 nm on a microplate reader.
(§2) Renal toxicity was measured after 90 minutes of incubation, while liver toxicity was measured after 48 hours of incubation with StAMPs. N/A=not tested.

[2] = 48 hours cytotoxicity assay (CellTiter-Glo), liver toxicity; assay type: cell-based; conditions: human
Protocol: as §1
48 hours cytotoxicity assay: Cells were plated in a 96-well format, and after 4 hour incubation to allow attachment, serial dilutions of StAMPs from a 5 mg/mL water stock, or vehicle, were then added to the cells in a final volume of 100 μl. After incubating at 37° C. for 48 hours, 100 μl of CellTiter-Glo® reagent was added to the cells, and the plates were incubated 10 minutes at room temperature. Luminescence was then measured on a microplate reader.
as §2

Compound	IC50 at 90 min [1] [µg/mL]	IC50 at 48 hours [2] [µg/mL]
CC[C@H](C)[C@H](NC(=O)[C@H](CCCCN)NC(=O)[C@H](CCCCN)NC(=O)CNC(=O)[C@H](CCCCN)NC(=O)[C@]1(C)CCCC=CCCC[C@](C)(NC(=O)CN)C(=O)N[C@@H](Cc2ccccc2)C(=O)N[C@@H](CCCCN)C(=O)N[C@@H](CCCCN)C(=O)N1)C(=O)N[C@@H](CCCCN)C(=O)N[C@@H](CC(N)=O)C(=O)N[C@@H](CC(C)C)C(=O)N[C@@]1(C)CCCC=CCCC[C@@](C)(C(=O)N[C@@H](CCCCN)C(=O)NCC(N)=O)NC(=O)CNC(=O)[C@H](CO)NC(=O)[C@H]([C@@H](C)CC)NC1=O [compound 26] (H-G[S5]FKK[S5]KGKKIKNL[S5]ISG[S5]KG-NH2; staple 2-6, 15-19)	32 (≈ 13.7 µM)	27 (≈ 11.6 µM)
CC[C@H](C)[C@H](NC(=O)[C@H](CCCCN)NC(=O)[C@H](CCCCN)NC(=O)[C@H](CCCCN)NC(=O)[C@H](CCCCN)NC(=O)[C@]1(C)CCCC=CCCC[C@](C)(NC(=O)CN)C(=O)N[C@@H](Cc2ccccc2)C(=O)N[C@@H](CO)C(=O)N[C@@H](CCCCN)C(=O)N1)C(=O)N[C@@H](CCCCN)C(=O)N[C@@H](CC(N)=O)C(=O)N[C@@H](CC(C)C)C(=O)N[C@@]1(C)CCCC=CCCC[C@@](C)(C(=O)N[C@@H](CCCCN)C(=O)NCC(N)=O)NC(=O)CNC(=O)[C@H](CO)NC(=O)[C@H]([C@@H](C)CC)NC1=O [compound 27] (H-G[S5]FSK[S5]KKKKIKNL[S5]ISG[S5]KG-NH2; staple 2-6, 15-19)	42 (≈ 17.8 µM)	35 (≈ 14.8 µM)
CC[C@H](C)[C@H](NC(=O)[C@H](CCCCN)NC(=O)[C@H](CCCCN)NC(=O)CNC(=O)[C@H](CCCCN)NC(=O)[C@]1(C)CCCC=CCCC[C@](C)(NC(=O)CN)C(=O)N[C@@H](Cc2ccccc2)C(=O)N[C@@H](CO)C(=O)N[C@@H](CCCCN)C(=O)N1)C(=O)N[C@@H](CCCCN)C(=O)N[C@@H](CCCCN)C(=O)N[C@@H](CC(C)C)C(=O)N[C@@]1(C)CCCC=CCCC[C@@](C)(C(=O)N[C@@H](CCCCN)C(=O)NCC(N)=O)NC(=O)CNC(=O)[C@H](CO)NC(=O)[C@H]([C@@H](C)CC)NC1=O [compound 29] (H-G[S5]FSK[S5]KGKKIKKL[S5]ISG[S5]KG-NH2; staple 2-6, 15-19)	27 (≈ 11.7 µM)	22 (≈ 9.55 µM)
CC[C@H](C)[C@H](NC(=O)[C@H](CCCCN)NC(=O)[C@H](CCCCN)NC(=O)CNC(=O)[C@H](CCCCN)NC(=O)[C@]1(C)CCCC=CCCC[C@](C)(NC(=O)CN)C(=O)N[C@@H](Cc2ccccc2)C(=O)N[C@@H](CO)C(=O)N[C@@H](CCCCN)C(=O)N1)C(=O)N[C@@H](CCCCN)C(=O)N[C@@H](CC(N)=O)C(=O)N[C@@H](CCCCN)C(=O)N[C@@]1(C)CCCC=CCCC[C@@](C)(C(=O)N[C@@H](CCCCN)C(=O)NCC(N)=O)NC(=O)CNC(=O)[C@H](CO)NC(=O)[C@H]([C@@H](C)CC)NC1=O [compound 30] (H-G[S5]FSK[S5]KGKKIKNK[S5]ISG[S5]KG-NH2; staple 2-6, 15-19)	> 200	> 200
CC[C@H](C)[C@H](NC(=O)[C@H](CCCCN)NC(=O)[C@H](CCCCN)NC(=O)CNC(=O)[C@H](CCCCN)NC(=O)[C@]1(C)CCCC=CCCC[C@](C)(NC(=O)CN)C(=O)N[C@@H](Cc2ccccc2)C(=O)N[C@@H](CO)C(=O)N[C@@H](CCCCN)C(=O)N1)C(=O)N[C@@H](CCCCN)C(=O)N[C@@H](CC(N)=O)C(=O)N[C@@H](CC(C)C)C(=O)N[C@@]1(C)CCCC=CCCC[C@@](C)(C(=O)N[C@@H](CCCCN)C(=O)NCC(N)=O)NC(=O)CNC(=O)[C@H](CO)NC(=O)[C@H](CCCCN)NC1=O [compound 31] (H-G[S5]FSK[S5]KGKKIKNL[S5]KSG[S5]KG-NH2; staple 2-6, 15-19)	116 (≈ 50.3 µM)	86 (≈ 37.3 µM)
